Measured values from PMC9481151, “Discovery of new symmetrical and asymmetrical nitrile-containing 1,4-dihydropyridine derivatives as dual kinases and P-glycoprotein inhibitors: synthesis, in vitro assays, and in silico studies” (Journal of Enzyme Inhibition and Medicinal Chemistry, 2022).

How the values were obtained:
U251 = assay: NCI single dose (10 µM) SRB screen; assay type: cell-based, human; conditions: CNS cancer, 48 h
OVCAR-5 = assay: NCI single dose (10 µM) SRB screen; assay type: cell-based, human; conditions: ovarian cancer, 48 h
SF-295 = assay: NCI single dose (10 µM) SRB screen; assay type: cell-based, human; conditions: CNS cancer, 48 h
CAKI-1 = assay: NCI single dose (10 µM) SRB screen; assay type: cell-based, human; conditions: renal cancer, 48 h
Pseudomonas aeruginosa = assay: Agar well diffusion method
Candida albicans = assay: Agar well diffusion method; conditions: relative to clotrimazole
BT-549 = assay: NCI single dose (10 µM) SRB screen; assay type: cell-based, human; conditions: breast cancer, 48 h
HL-60(TB) = assay: NCI single dose (10 µM) SRB screen; assay type: cell-based, human; conditions: leukaemia, 48 h
NCI-H522 = assay: NCI single dose (10 µM) SRB screen; assay type: cell-based, human; conditions: non-small cell lung cancer, 48 h
K-562 = assay: NCI single dose (10 µM) SRB screen; assay type: cell-based, human; conditions: leukaemia, 48 h
HOP-92 = assay: NCI single dose (10 µM) SRB screen; assay type: cell-based, human; conditions: non-small cell lung cancer, 48 h
SNB-75 = assay: NCI single dose (10 µM) SRB screen; assay type: cell-based, human; conditions: CNS cancer, 48 h
UACC-62 = assay: NCI single dose (10 µM) SRB screen; assay type: cell-based, human; conditions: melanoma, 48 h
Aspergillus flavus = assay: Agar well diffusion method
Bacillus subtilis = assay: Agar well diffusion method; conditions: relative to ciprofloxacin
UACC-257 = assay: NCI single dose (10 µM) SRB screen; assay type: cell-based, human; conditions: melanoma, 48 h
MALME-3M = assay: NCI single dose (10 µM) SRB screen; assay type: cell-based, human; conditions: melanoma, 48 h
COLO 205 = assay: NCI single dose (10 µM) SRB screen; assay type: cell-based, human; conditions: colon cancer, 48 h
OVCAR-4 = assay: NCI single dose (10 µM) SRB screen; assay type: cell-based, human; conditions: ovarian cancer, 48 h
ACHN = assay: NCI single dose (10 µM) SRB screen; assay type: cell-based, human; conditions: renal cancer, 48 h
SR = assay: NCI single dose (10 µM) SRB screen; assay type: cell-based, human; conditions: leukaemia, 48 h
SK-MEL-2 = assay: NCI single dose (10 µM) SRB screen; assay type: cell-based, human; conditions: melanoma, 48 h
Escherichia coli = assay: Agar well diffusion method; conditions: relative to ciprofloxacin
SNB-19 = assay: NCI single dose (10 µM) SRB screen; assay type: cell-based, human; conditions: CNS cancer, 48 h
NCI-H23 = assay: NCI single dose (10 µM) SRB screen; assay type: cell-based, human; conditions: non-small cell lung cancer, 48 h
HCT-116 = assay: NCI single dose (10 µM) SRB screen; assay type: cell-based, human; conditions: colon cancer, 48 h
SK-MEL-28 = assay: NCI single dose (10 µM) SRB screen; assay type: cell-based, human; conditions: melanoma, 48 h
RXF 393 = assay: NCI single dose (10 µM) SRB screen; assay type: cell-based, human; conditions: renal cancer, 48 h
HCT-15 = assay: NCI single dose (10 µM) SRB screen; assay type: cell-based, human; conditions: colon cancer, 48 h
MCF7 = assay: NCI single dose (10 µM) SRB screen; assay type: cell-based, human; conditions: breast cancer, 48 h
HS578T = assay: NCI single dose (10 µM) SRB screen; assay type: cell-based, human; conditions: breast cancer, 48 h
786-0 = assay: NCI single dose (10 µM) SRB screen; assay type: cell-based, human; conditions: renal cancer, 48 h
HCC-2998 = assay: NCI single dose (10 µM) SRB screen; assay type: cell-based, human; conditions: colon cancer, 48 h
SN12C = assay: NCI single dose (10 µM) SRB screen; assay type: cell-based, human; conditions: renal cancer, 48 h
IGROV1 = assay: NCI single dose (10 µM) SRB screen; assay type: cell-based, human; conditions: ovarian cancer, 48 h
OVCAR-3 = assay: NCI single dose (10 µM) SRB screen; assay type: cell-based, human; conditions: ovarian cancer, 48 h
MDA-MB-468 = assay: NCI single dose (10 µM) SRB screen; assay type: cell-based, human; conditions: breast cancer, 48 h
NCI-H226 = assay: NCI single dose (10 µM) SRB screen; assay type: cell-based, human; conditions: non-small cell lung cancer, 48 h
PC-3 = assay: NCI single dose (10 µM) SRB screen; assay type: cell-based, human; conditions: prostate cancer, 48 h
KM12 = assay: NCI single dose (10 µM) SRB screen; assay type: cell-based, human; conditions: colon cancer, 48 h
RPMI-8226 = assay: NCI single dose (10 µM) SRB screen; assay type: cell-based, human; conditions: leukaemia, 48 h
SK-OV-3 = assay: NCI single dose (10 µM) SRB screen; assay type: cell-based, human; conditions: ovarian cancer, 48 h
M14 = assay: NCI single dose (10 µM) SRB screen; assay type: cell-based, human; conditions: melanoma, 48 h
NCI-H460 = assay: NCI single dose (10 µM) SRB screen; assay type: cell-based, human; conditions: non-small cell lung cancer, 48 h
NCI-H322M = assay: NCI single dose (10 µM) SRB screen; assay type: cell-based; conditions: non-small cell lung cancer, 48 h
TK-10 = assay: NCI single dose (10 µM) SRB screen; assay type: cell-based, human; conditions: renal cancer, 48 h
UO-31 = assay: NCI single dose (10 µM) SRB screen; assay type: cell-based, human; conditions: renal cancer, 48 h
Staphylococcus aureus = assay: Agar well diffusion method
NCI 60 cancer cell lines = assay: NCI single dose (10 µM) SRB screen, mean over panel; assay type: cell-based, human; conditions: mean over 60 cell lines, 48 h
CCRF-CEM = assay: NCI single dose (10 µM) SRB screen; assay type: cell-based, human; conditions: leukaemia, 48 h
T-47D = assay: NCI single dose (10 µM) SRB screen; assay type: cell-based, human; conditions: breast cancer, 48 h

In the case of `COC(=O)C1=C(C)NC(C)=C(C(=O)OCc2ccccc2)C1c1cccc(C#N)c1` (racemic) [Compound 2e, (±)-3-Benzyl 5-methyl 4-(3-cyanophenyl)-2,6-dimethyl-1,4-dihydropyridine-3,5-dicarboxylate], the “GI% U251” value (U251) was 46%, the “GI% OVCAR-5” value (OVCAR-5) was 21% and the “GI% SF-295” value (SF-295) was 44%. The “GI% CAKI-1” value (CAKI-1) was 27%, the zone of inhibition at 1000 µg/mL (Pseudomonas aeruginosa; Pseudomonas aeruginosa, 24 h, read-out: Diameter of inhibition zone, P. aeruginosa) was 7 mm and the “% activity index, P. aeruginosa” value (Pseudomonas aeruginosa; relative to ciprofloxacin) was 30.4%. For the same compound, the “% activity index, C. albicans” value (Candida albicans) was “– (Values below 25 are of limited value and not shown as they refer either to inactive or non-diffusing compounds)”, the “GI% BT-549” value (BT-549) was “– (Only GI% ≥ 10 are shown)” and the “GI% HL-60(TB)” value (HL-60(TB)) was 43%. For the same compound, the “GI% NCI-H522” value (NCI-H522) was 24%, the “GI% K-562” value (K-562) was 56% and the “GI% HOP-92” value (HOP-92) was 12%. The “GI% SNB-75” value (SNB-75) was 34%, the “GI% UACC-62” value (UACC-62) was 37% and the zone of inhibition at 1000 µg/mL (Aspergillus flavus; Aspergillus flavus, 24 h, read-out: Diameter of inhibition zone, A. flavus) was 10 mm. For the same compound, the “% activity index, A. flavus” value (Aspergillus flavus; relative to clotrimazole) was 40%, the “% activity index, B. subtilis” value (Bacillus subtilis) was “– (Values below 25 are of limited value and not shown as they refer either to inactive or non-diffusing compounds)” and the “GI% UACC-257” value (UACC-257) was 21%. For the same compound, the “GI% MALME-3M” value (MALME-3M) was 24%, the “GI% COLO 205” value (COLO 205) was 43% and the “GI% OVCAR-4” value (OVCAR-4) was “– (Only GI% ≥ 10 are shown)”. For the same compound, the “GI% ACHN” value (ACHN) was 28%, the “GI% SR” value (SR) was 33% and the “GI% SK-MEL-2” value (SK-MEL-2) was “– (Only GI% ≥ 10 are shown)”. For the same compound, the “% activity index, E. coli” value (Escherichia coli) was “– (Values below 25 are of limited value and not shown as they refer either to inactive or non-diffusing compounds)”, the “GI% SNB-19” value (SNB-19) was 32% and the “GI% NCI-H23” value (NCI-H23) was “– (Only GI% ≥ 10 are shown)”. The “GI% HCT-116” value (HCT-116) was 71%, the “GI% SK-MEL-28” value (SK-MEL-28) was 27% and the “GI% RXF 393” value (RXF 393) was 14%. The “GI% HCT-15” value (HCT-15) was 66%, the “GI% MCF7” value (MCF7) was 29% and the “GI% HS578T” value (HS578T) was 28%. The “GI% 786-0” value (786-0) was 22%, the “GI% HCC-2998” value (HCC-2998) was “– (Only GI% ≥ 10 are shown)” and the “GI% SN12C” value (SN12C) was “– (Only GI% ≥ 10 are shown)”. The “GI% IGROV1” value (IGROV1) was 36%, the “GI% OVCAR-3” value (OVCAR-3) was “– (Only GI% ≥ 10 are shown)” and the “GI% MDA-MB-468” value (MDA-MB-468) was 33%. For the same compound, the “GI% NCI-H226” value (NCI-H226) was 31%, the “GI% PC-3” value (PC-3) was 51% and the “GI% KM12” value (KM12) was 39%. The “GI% RPMI-8226” value (RPMI-8226) was 52%, the “GI% SK-OV-3” value (SK-OV-3) was “– (Only GI% ≥ 10 are shown)” and the “GI% M14” value (M14) was 15%. The “GI% NCI-H460” value (NCI-H460) was 64%, the “GI% NCI-H322M” value (NCI-H322M) was “– (Only GI% ≥ 10 are shown)” and the “GI% TK-10” value (TK-10) was “– (Only GI% ≥ 10 are shown)”. The “GI% UO-31” value (UO-31) was “– (Only GI% ≥ 10 are shown)”, the zone of inhibition at 1000 µg/mL (Staphylococcus aureus; Staphylococcus aureus, 24 h, read-out: Diameter of inhibition zone, S. aureus) was 8 mm and the “% activity index, S. aureus” value (Staphylococcus aureus; relative to ciprofloxacin) was 33.3%. The “Mean GI%” value (NCI 60 cancer cell lines) was 28%, the “GI% CCRF-CEM” value (CCRF-CEM) was 37% and the “GI% T-47D” value (T-47D) was 11%.
